The values that follow come from PubChem BioAssay (NCI).

Common to all, as to experiment: NCI anticancer screen, dose series, 48 h
The subject of assay [1] is COLO 205 colon.
The subject of assay [2] is EKVX NSCLC.
In assay [3] the test system is HCC-2998 colon.
Assay [4] concerns NCI-H460 lung.
Assay [5] relates to SK-OV-3 ovarian.
Assay [6] has as its system U251 CNS.
Assay [7] has as its system MDA-MB-231 breast.
For assay [8], the system named is MOLT-4 leukemia.
For assay [9], the system named is PC-3 prostate.
The subject of assay [10] is RXF 393 renal.

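Exposure lasted 48 hours, with cells grown in 96-well plates and compounds tested at five concentrations. The concentration for full growth arrest is given as TGI.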 Where a SMILES comes first, the peptide text is derived from it. [ ]: non-standard residue; d: D form. The star is where a group is joined. mTyr = N[CH](Cc1cccc(O)c1)C(=O)O; Cbz = O=C(OCc1ccccc1)*; OBn = c1ccc(CO*)cc1 Some results are limits rather than exact numbers.

On to `COc1ccc(CSc2ccccc2Cn2cccc2)cc1OC`, for which the TGI in assay [1], in assay [2], in assay [3], in assay [4], in assay [5] and in assay [6] was above 100 µM throughout.
Turning to `CN(C)CCCN1c2ccccc2CCc2ccc([N+](=O)[O-])cc21`, the TGI in assay [1] was 32 µM; in [2], above 100 µM; in assay [3] it was 28.5 µM; in assay [7], above 100 µM; in assay [8], above 100 µM; in [4] it was 42.3 µM. Also, the TGI in assay [9], in [5] and in assay [6] was above 100 µM each time.
For the compound `Nc1nc(Cl)c(N)c(NCC2(CO)CC(CCCc3ccccc3)C2)n1` (stereo not drawn), the TGI is 45.6 µM in assay [1]; 10.1 µM in [2]; above 100 µM in assay [3]; 99.7 µM in assay [7]; above 100 µM in [8]; above 100 µM in assay [4]. For the same compound, the TGI in assay [9] is above 91.5 µM; in assay [5], above 100 µM; in assay [6], above 100 µM.
On to `CN(CCCNC(=O)c1nn(-c2ccc(Cl)cc2Cl)c2c1Cc1ccccc1-2)CCCNC(=O)c1nn(-c2ccc(Cl)cc2Cl)c2c1Cc1ccccc1-2`, for which the TGI is 3.26 µM in assay [1]; 3.26 µM in assay [2]; 3 µM in assay [3]; 3.18 µM in assay [7]; 3.98 µM in assay [8]; 3.19 µM in assay [4]. Further, the TGI was 3.11 µM in assay [9], 3.06 µM in [5] and 3.1 µM in [6].
As for `O=C(Cc1ccccc1)NN1C(=O)C(Cl)C1c1ccccc1O` (stereo not drawn), the TGI was above 100 µM in assay [1]; 26.7 µM in assay [2]; above 100 µM in [3]; above 100 µM in [8]; 38.2 µM in [4]; above 100 µM in [10]. Further, the TGI in assay [5] and in assay [6] was above 100 µM each time.
As for `CCN(CC)Cc1sc2nc3ccccc3n2c1-c1ccc(OC)cc1`, the TGI in assay [1] was 77.3 µM; in assay [2], 75.1 µM; in assay [3], above 100 µM; in assay [7], above 100 µM; in assay [8] it was above 100 µM; in [9] it was above 100 µM. Besides, the TGI in assay [10] is 97 µM; in assay [5] it was above 100 µM; in [6] it was above 100 µM.
In the case of `COc1cc(/C=C(/C#N)C(N)=O)ccc1O`, the TGI in assay [1] was above 100 µM; in assay [2] it was above 100 µM; in assay [3], above 82.1 µM; in [8], above 100 µM; in [4], above 100 µM; in [5], above 100 µM. The TGI in assay [6] is above 100 µM.
Turning to `O=c1onc2c3ccccc3ncn12`, the TGI in assay [1], in [2], in assay [3], in assay [7], in assay [8] and in assay [9] was above 100 µM throughout. The TGI in [10], in assay [5] and in assay [6] was above 100 µM in each case.
For `O=[As](O)(O)c1ccc(N=Nc2ccc(O)cc2)cc1`, the TGI in assay [1] is above 100 µM; in assay [2], above 100 µM; in assay [7], above 100 µM; in assay [8] it was 17.1 µM; in assay [4] it was above 100 µM; in [9], above 100 µM. The TGI in assay [10], in assay [5] and in assay [6] was above 100 µM throughout.
With `COC(=O)C(Cc1cccc(O)c1)NC(=O)C(CC(=O)OCc1ccccc1)NC(=O)OCc1ccccc1` (stereo not drawn) (Cbz-Asp(OBn)-[mTyr]-OMe; configuration not given here), the TGI in [1] is above 100 µM; in assay [2], above 100 µM; in [3], above 100 µM; in assay [7] it was above 100 µM; in [8], above 100 µM; in [4], 35.6 µM. For the same compound, the TGI in assay [9], in [10] and in [6] was above 100 µM throughout.
As to `Cc1ccc(CC(C)N)cc1` (stereo not drawn), the TGI in [1], in [2], in assay [3], in assay [8], in assay [4] and in assay [10] was above 100 µM throughout. Besides, the TGI in [5] and in assay [6] was above 100 µM in each case.
Take `COc1cc2c(cc1OC)C1(c3ccc(Cl)cc3)ON=C(c3ccccc3)N1CS2` (stereo not drawn): the TGI in [1], in [2], in [3], in [8], in [4] and in assay [10] was above 100 µM each time. The TGI in [5] and in assay [6] was above 100 µM throughout.
For the compound `O=C(CC(=O)Nc1ccccc1)N/N=C/c1cc(N=Nc2ccc(Br)cc2)ccc1O`, the TGI in assay [1], in assay [2], in assay [3], in assay [7], in assay [8] and in [4] was above 10 µM throughout. For the same compound, the TGI in assay [5] and in assay [6] was above 10 µM throughout.
Regarding `CCOP(=O)(OCC)C(C)(CC)NC` (stereo not drawn), the TGI in assay [1], in assay [2], in assay [3], in [7], in assay [8] and in assay [4] was above 100 µM throughout. Further, the TGI in assay [10], in assay [5] and in [6] was above 100 µM in each case.
`FC(F)(F)c1ccc2nc(Sc3ccccn3)cnc2c1`: the TGI in [1] was above 100 µM; in assay [2], above 100 µM; in assay [3] it was 38.3 µM; in assay [7], above 100 µM; in assay [8] it was above 100 µM; in assay [4] it was above 100 µM. The figures for the TGI in assay [10], in assay [5] and in assay [6] were 55.5 µM, above 100 µM and 42.3 µM, respectively.
For the compound `CC(NC(C)(C)C)C(=O)c1cccc(Cl)c1` (stereo not drawn), the TGI in [1], in assay [2], in assay [3], in assay [8], in [4] and in assay [10] was above 100 µM throughout. For the same compound, the TGI in assay [5] and in [6] was above 100 µM in each case.
Turning to `Cc1ccc2c(=O)cc(-c3ccc(-c4ccccc4)s3)[nH]c2n1`, the TGI in [1] is above 100 µM; in assay [2], above 81.4 µM; in assay [7], above 100 µM; in assay [8], above 78.9 µM; in assay [4] it was above 100 µM; in assay [9] it was 85.5 µM. For the same compound, the TGI in [10], in [5] and in assay [6] was above 100 µM throughout.
For `O=C(O)CNC(=O)c1c2ccccc2nc2ccccc12`, the TGI in [1], in [2], in assay [3], in assay [7], in assay [8] and in assay [4] was above 100 µM each time. The TGI in [9], in [5] and in assay [6] was above 100 µM throughout.
Regarding `Cc1nc(-c2ccc(N=Cc3ccc(N(CCOS(C)(=O)=O)CCOS(C)(=O)=O)cc3C)cc2)cs1`, the TGI in [1], in assay [3], in [7], in [8], in assay [4] and in [9] was above 100 µM throughout. For the same compound, the TGI in [10] is 53.9 µM; in assay [5], above 100 µM; in assay [6], above 100 µM.
Consider `CC(C)=C/C=C1/CS(=O)(=O)C=C1C`, for which the TGI in assay [1], in assay [2], in [3], in assay [7], in assay [8] and in assay [9] was above 100 µM in each case. In addition, the TGI in assay [10], in assay [5] and in [6] was above 100 µM each time.
Turning to `Nc1ccc(CCN2CCN(CCCc3ccccc3)CC2)cc1`, the TGI in assay [1], in [2], in assay [3], in assay [7], in assay [8] and in [4] was above 100 µM in each case. Also, the TGI in [9], in assay [5] and in [6] was above 100 µM each time.
On to `CCCc1ccc(NCc2cc(OC)c(OC)c(OC)c2)cc1`, for which the TGI was above 100 µM in assay [2]; 66.2 µM in assay [8]; above 100 µM in assay [4]; 61.7 µM in assay [10]; 66.3 µM in [5]; 81.9 µM in assay [6].
Regarding `COc1ccc2c(c1)CCN1CCc3cc(OC)c(OC)cc3CC21` (stereo not drawn), the TGI in assay [1] is above 100 µM; in assay [2], above 10 µM; in assay [3], above 100 µM; in assay [7] it was above 100 µM; in assay [8], above 100 µM; in [10], above 100 µM. The TGI in [5] and in [6] was above 100 µM each time.
Turning to `N#C/C(=C\c1c[nH]c2ccccc12)C(=O)c1ccc(O)c(O)c1`, the TGI in [1] was above 67.7 µM; in assay [2], above 100 µM; in assay [3], above 100 µM; in assay [8], 98.1 µM; in assay [4], above 100 µM; in [9] it was above 100 µM. Also, the TGI in [10], in assay [5] and in assay [6] was above 100 µM in each case.
For the compound `COC(=O)c1cnn2c1n[n+]([O-])c1ccccc12`, the TGI in assay [1], in assay [2], in assay [7], in [8], in assay [9] and in assay [10] was above 100 µM throughout. Further, the TGI in assay [5] and in [6] was above 100 µM in each case.
With `Brc1ccc(-c2cn3ccncc3n2)cc1`, the TGI in assay [1], in assay [2], in assay [7], in assay [8], in [4] and in assay [9] was above 100 µM throughout. The TGI in assay [10], in assay [5] and in assay [6] was above 100 µM in each case.
With `Cc1ccc(N=Nc2c(O)c(C(=O)Nc3ccccc3)cc3ccccc23)c([N+](=O)[O-])c1`, the TGI in assay [1], in [2], in assay [7], in [8], in assay [9] and in assay [10] was above 100 µM each time. In addition, the TGI in [5] and in [6] was above 100 µM each time.
Take `COc1ccc(-n2cnc3c(NC(CCSC)C(=O)O)ncnc32)cc1` (stereo not drawn): the TGI in assay [1], in assay [2], in assay [3], in assay [7], in [8] and in assay [4] was above 100 µM throughout. The TGI in assay [9], in [5] and in assay [6] was above 100 µM throughout.
With `O=C(CSC1=NCCN1)Nc1ccccc1`, the TGI in assay [2] is above 100 µM; in [3], 63.1 µM; in [7], 50.3 µM; in [8] it was above 100 µM; in [4], above 100 µM; in assay [9], 52.6 µM. Further, the TGI in assay [10] stood at 33.3 µM; in assay [6] it was 39.2 µM.
For `CC(C)(C)c1cc(C2COC(c3cc(C(C)(C)C)c(O)c(C(C)(C)C)c3)CO2)cc(C(C)(C)C)c1O` (stereo not drawn), the TGI was 96.7 µM in [1]; above 100 µM in [2]; above 100 µM in assay [7]; above 100 µM in [9]; above 100 µM in assay [10]; above 100 µM in assay [5]. Also, the TGI in [6] was above 100 µM.
As to `Nc1ccc(C(=O)NN2C(=O)C(Cl)C2c2ccccc2)cc1` (stereo not drawn), the TGI in [1], in assay [2], in assay [3], in [8], in assay [4] and in assay [5] was above 100 µM in each case. For the same compound, the TGI in assay [6] is above 100 µM.
